Where “and” joins values, the source holds several entries; their conditions need not be identical. Identical values can stand only once.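 Results reflect a 48-hour exposure of cells in 96-well plates to compound at five concentrations. Abbreviation: GI50, concentration required for 50% inhibition of growth.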 Calls of active or inactive are those of the source. Rule as the data show it: active = GI50 up to about 1.1 µM and inactive = higher.
Experiments:
Assay in all cases: NCI tumour cell line growth inhibition, 48 h
SK-OV-3 = test system: SK-OV-3
UACC-257 = test system: UACC-257
SNB-75 = test system: SNB-75
SNB-19 = test system: SNB-19
SF-295 = test system: SF-295
UO-31 = test system: UO-31
SR = test system: SR
SF-268 = test system: SF-268
SN12C = test system: SN12C
OVCAR-4 = test system: OVCAR-4
SF-539 = test system: SF-539
NCI/ADR-RES = test system: NCI/ADR-RES
COLO 205 = test system: COLO 205
HOP-62 = test system: HOP-62
TK-10 = test system: TK-10
ACHN = test system: ACHN
T47D = test system: T47D
HCC 2998 = test system: HCC 2998
HL-60 = test system: HL-60
Hs-578T = test system: Hs-578T

Structure (SMILES) | GI50 (SK-OV-3) | GI50 (UACC-257) | GI50 (SNB-75) | GI50 (SNB-19) | GI50 (SF-295) | GI50 (UO-31) | GI50 (SR) | GI50 (SF-268) | GI50 (SN12C) | GI50 (OVCAR-4) | GI50 (SF-539) | GI50 (NCI/ADR-RES) | GI50 (COLO 205) | GI50 (HOP-62) | GI50 (TK-10) | GI50 (ACHN) | GI50 (T47D) | GI50 (HCC 2998) | GI50 (HL-60) | GI50 (Hs-578T)
Cn1c(=O)oc2nc(-c3ccccc3)cc(C(F)(F)F)c21 | > 100 µM (inactive) | > 100 µM (inactive) | > 100 µM (inactive) | > 100 µM (inactive) | > 100 µM (inactive) | > 100 µM (inactive) | 44.6 µM (inactive) | > 100 µM (inactive) | 5.71 µM (inactive) | 45.4 µM (inactive) | 5.3 µM (inactive) | 58.3 µM (inactive) | > 100 µM (inactive) | > 100 µM (inactive) | > 100 µM (inactive) | > 100 µM (inactive) | > 100 µM (inactive) | > 100 µM (inactive) |  | 
CCOC(=O)C(NC(=O)C(CCCCNP(=O)(OCC)OCC)NC(=O)C(C)NC(C)=O)C(C)C (stereo unspecified) |  | > 100 µM (inactive) | > 100 µM (inactive) | > 100 µM (inactive) | > 100 µM (inactive) | > 100 µM (inactive) | > 100 µM (inactive) | > 100 µM (inactive) | > 100 µM (inactive) | > 100 µM (inactive) | > 100 µM (inactive) | > 100 µM (inactive) | > 100 µM (inactive) | > 100 µM (inactive) | > 100 µM (inactive) | > 100 µM (inactive) |  | > 100 µM (inactive) | > 100 µM (inactive) | 
C[Si](C)(C)OC1(C#N)C2C3CC4C2C(=O)C2C4C3C21 (stereo unspecified) | > 100 µM (inactive) | > 100 µM (inactive) | > 100 µM (inactive) | > 100 µM (inactive) |  | > 100 µM (inactive) | > 100 µM (inactive) | > 100 µM (inactive) | > 100 µM (inactive) | > 100 µM (inactive) | > 100 µM (inactive) |  | > 100 µM (inactive) | > 100 µM (inactive) | > 100 µM (inactive) | > 100 µM (inactive) |  | > 100 µM (inactive) | > 100 µM (inactive) | 
NC(Cc1ccc(OCc2ccccc2)cn1)C(=O)OCc1ccccc1 (stereo unspecified) |  | > 100 µM (inactive) |  | > 100 µM (inactive) | > 100 µM (inactive) | > 100 µM (inactive) | > 100 µM (inactive) |  | > 100 µM (inactive) | > 100 µM (inactive) | > 100 µM (inactive) | > 100 µM (inactive) | > 100 µM (inactive) | > 100 µM (inactive) | > 100 µM (inactive) | > 100 µM (inactive) |  | 52.4 µM (inactive) | > 100 µM (inactive) | > 100 µM (inactive)
CC(=O)OCC1OC(n2c(-c3ccccc3)c(C(C)=O)c(-c3cccc4ccccc34)c(C#N)c2=S)C(OC(C)=O)C(OC(C)=O)C1OC(C)=O (stereo unspecified) | > 100 µM (inactive) | > 100 µM (inactive) |  | > 100 µM (inactive) | > 100 µM (inactive) | < 0.01 µM (active) | > 100 µM (inactive) | > 100 µM (inactive) | > 100 µM (inactive) | 28.7 µM (inactive) and 17.9 µM (inactive) | > 100 µM (inactive) | > 100 µM (inactive) | > 100 µM (inactive) | > 100 µM (inactive) | > 100 µM (inactive) | > 100 µM (inactive) | > 100 µM (inactive) | > 100 µM (inactive) | > 100 µM (inactive) | 
CC(C)(C)C1CCC(=O)C(C(O)CC2CC(=O)N(c3ccccc3)C(=O)C2)C1 (stereo unspecified) | > 100 µM (inactive) | > 100 µM (inactive) | > 100 µM (inactive) | > 100 µM (inactive) | > 100 µM (inactive) | > 100 µM (inactive) | 81.3 µM (inactive) | 81.5 µM (inactive) | > 100 µM (inactive) | > 100 µM (inactive) | > 100 µM (inactive) |  | > 100 µM (inactive) | > 100 µM (inactive) | > 100 µM (inactive) | > 100 µM (inactive) |  | > 100 µM (inactive) | > 100 µM (inactive) | 
Cc1ccnc(NS(=O)(=O)c2ccc(NC3=CC(=O)C(=O)c4ccccc43)cc2)n1 | > 100 µM (inactive) | > 100 µM (inactive) | > 100 µM (inactive) | > 100 µM (inactive) | > 100 µM (inactive) | > 100 µM (inactive) | > 100 µM (inactive) | > 100 µM (inactive) | > 100 µM (inactive) | > 100 µM (inactive) | > 100 µM (inactive) |  | > 100 µM (inactive) | > 100 µM (inactive) | > 100 µM (inactive) | > 100 µM (inactive) |  | > 100 µM (inactive) | > 100 µM (inactive) | 
O=C1c2ccccc2C(=O)N1NC1=NCCN1 | > 100 µM (inactive) | > 100 µM (inactive) |  | > 100 µM (inactive) | > 100 µM (inactive) |  | > 100 µM (inactive) | > 100 µM (inactive) | > 100 µM (inactive) | > 100 µM (inactive) | > 100 µM (inactive) | > 100 µM (inactive) | > 100 µM (inactive) | > 100 µM (inactive) | > 100 µM (inactive) | > 100 µM (inactive) | > 100 µM (inactive) | > 100 µM (inactive) | > 100 µM (inactive) | 
